11 compounds from patent US6770638B2, “Tetrahydroindolone and purine derivatives linked to arylpiperazines” (Spectrum Pharmaceuticals, Inc., priority 2001, dated 2004) can be followed below.

The nature of series [1]: Membrane permeability (Papp) across Caco-2 cell monolayers. It is filed as in vitro ADME. Conditions: human, Caco-2 monolayer; for Papp A→B: apical to basolateral, read-out: Papp (cm/s × 10^6) AP-to-BL; for Papp B→A: basolateral to apical, read-out: Papp (cm/s × 10^6) BL-to-AP; for efflux ratio: read-out: RATIO Papp^B-A/Papp^A-B.
The next series relates to Caco-2 cells. Described as above. The note with it: Caco-2; for EFFLUX LIMITED: Yes/No; for PERMEABILITY: class in words (High/Low). It is filed as in vitro ADME.
The subject of the next series is mice. Briefly: Conditioned avoidance responding (CAR, active avoidance). It is filed as in vivo. The note with it: SC to mice, 20 minutes before test session. As for the experimental part:
Training: Consists of 20 trials with variable inter-trial intervals (Trained to 80% Avoidance Criteria). After a one-minute acclimation period, the house light and an acoustic 90 dB tone (conditioned stimuli) are presented. A response (crossing to dark compartment) within 5 seconds ends the trial and trial is recorded as avoidance response (CAR). […] To avoid shock, animals learn to move from the lighted side of the -chamber to the dark side when the cue is presented (avoidance) or moved when the shock is administered (escape). Testing: Vehicle or test compounds are administered S.C. 20 minutes before the test session. (Checking for disruption of cognition and attention)

Another series relates to male C-57 mice. Briefly: PCP disruption of pre-pulse inhibition of the acoustic startle response. The note with it: route not given (method: PO or SC); PCP 5 mg/kg IP. The format is in vivo. The procedure:
The non-competitive NMDA receptor antagonist phencyclidine (PCP) reduces pre-pulse inhibition (PPI) of the acoustic startle response in rodents. Identifying compounds that improve the PCP-induced deficits in pre-pulse inhibition may provide insight into therapeutic strategies for treating schizophrenia. For testing of PPI, male C-57 mice were assigned to five dose groups of eight animals per group, and vehicle or test compound were administered orally (PO) or subcutaneously (SC) 20 minutes prior to intraperitoneal (IP) administration of vehicle or PCP (5 mg/kg). Ten minutes following PCP administration, the mice were placed into Hamilton-Kinder startle chambers and evaluation of pre-pulse inhibition procedure was performed. Following a five-minute acclimatization period with background white noise (65 db), mice were exposed to five different trial types. Trials were presented […] in a quasi-random order, with randomized 5 to 25 second inter-trial intervals. Trials were: stimulus only trial (120 db white noise, 50 ms stimulus); two different prepulse+pulse trials in which a 20 ms 5 db, or 10 db stimuli above a 65 db background preceded the 120 db pulse by 120 ms; a 10 db prepulse without a 120 db pulse; and a no stimulus trial, in which only the background noise was presented.

As to `O=C1CCCc2c1ccn2CCCN1CCN(c2cccc(Cl)c2)CC1` [NEO-363, 1-{3-[4-(3-Chlorophenyl)piperazine-1-yl]propyl}-1,5,6,7-tetrahydroindol-4-one], in series [1], the Papp A→B is 18 ± 0.7 ×10⁻⁶ cm/s, the Papp B→A was determined as 13.1 ± 1.1 ×10⁻⁶ cm/s and the efflux ratio was determined as 0.75. In addition, in the series on Caco-2 cells, the “EFFLUX LIMITED” value is recorded as “No” and the PERMEABILITY entry is given as “High”. For the same compound, the “Conditioned Avoidance Responding, overall effect / effect on escape or avoidance” value in the series with mice is reported as “No effect”.
Take `O=C1CCCc2c1ccn2CCCN1CCN(c2ncccn2)CC1` [NEO-381, 1-{3-[4-(2-Pyrimidyl)piperazine-1-yl]propyl}-1,5,6,7-tetrahydroindol-4-one]: in series [1], the Papp A→B is 32.9 ± 9.6 ×10⁻⁶ cm/s, the Papp B→A came to 25.3 ± 0.7 ×10⁻⁶ cm/s and the efflux ratio was 0.77. Moreover, in the series on Caco-2 cells, the “EFFLUX LIMITED” value is “No” and the PERMEABILITY entry is listed as “High”. In addition, in the series on male C-57 mice, the “PCP Disruption of Pre-pulse Inhibition, result in words” value (from here on “PCP Disruption of Pre-pulse Inhibition”) is listed as “No reversal”. Moreover, the “Conditioned Avoidance Responding, overall effect / effect on escape or avoidance” value with mice is listed as “No effect”.
`COc1ccccc1N1CCN(CCCn2ccc3c2CCCC3=O)CC1` [NEO-370, 1-{3-[4-(2-Methoxyphenyl)piperazine-1-yl]propyl}-1,5,6,7-tetrahydroindol-4-one]: in series [1], the Papp A→B came out at 32.1 ± 8.1 ×10⁻⁶ cm/s, the Papp B→A amounted to 20 ± 3.4 ×10⁻⁶ cm/s and the efflux ratio turned out to be 0.67. In the series on Caco-2 cells, the “EFFLUX LIMITED” value was “No” and the PERMEABILITY result is recorded as “High”. Moreover, in the series on mice, the “Conditioned Avoidance Responding, effect on avoidance” value is “Significant reduction in avoidance” and the “Conditioned Avoidance Responding, effect on latency” value is given as “Significant increase in latency”.
For `CN1CCN(C2=Nc3cc(Cl)ccc3Nc3ccccc32)CC1` [Clozapine, clozapine, reference compound], in series [1], the Papp A→B is 15.3 ± 0.7 ×10⁻⁶ cm/s, the Papp B→A amounted to 7.4 ± 1.1 ×10⁻⁶ cm/s and the efflux ratio is 0.65. For the same compound, in the series on Caco-2 cells, the “EFFLUX LIMITED” value is given as “No” and the PERMEABILITY entry is on record as “High”.
As to `Cc1nc2n(c(=O)c1CCN1CCC(c3noc4cc(F)ccc34)CC1)CCCC2` [Risperidone, risperidone, reference compound], in series [1], the Papp A→B was found to be 21.5 ± 0.2 ×10⁻⁶ cm/s and the Papp B→A is 14 ± 3.1 ×10⁻⁶ cm/s. In addition, in the series on Caco-2 cells, the “EFFLUX LIMITED” value is “No” and the PERMEABILITY result is “High”. For the same compound, in the series on mice, the “Conditioned Avoidance Responding, effect on avoidance” value is reported as “Significant reduction in avoidance” and the “Conditioned Avoidance Responding, effect on latency” value is reported as “Significant increase in latency”.
As for `COc1ccccc1N1CCN(CCn2ccc3c2CCCC3=O)CC1` [NEO-377, 1-{2-[4-(2-Methoxyphenyl)-piperazin-1-yl]-ethyl}-1,5,6,7-tetrahydroindol-4-one], in series [1], the Papp A→B worked out at 26 ± 1.8 ×10⁻⁶ cm/s, the Papp B→A stood at 15.5 ± 2.9 ×10⁻⁶ cm/s and the efflux ratio turned out to be 0.6. In the series with Caco-2 cells, the “EFFLUX LIMITED” value was “No” and the PERMEABILITY entry is “High”. In addition, in the series with mice, the “Conditioned Avoidance Responding, effect on avoidance” value was “Significant reduction in avoidance” and the “Conditioned Avoidance Responding, effect on latency” value is “Significant increase in latency”.
With `CC(C)NCC(O)COc1cccc2ccccc12` (stereo not shown) [Propranolol, reference compound], the Papp A→B in series [1] worked out at 17.3 ± 2.3 ×10⁻⁶ cm/s. Moreover, in the series with Caco-2 cells, the “EFFLUX LIMITED” value is recorded as “No” and the PERMEABILITY result is given as “High”.
Consider `O=C1CCCc2c1ccn2CCCCN1CCN(c2cccc(C(F)(F)F)c2)CC1` [NEO-392, 1-{4-[4-(3-Trifluoromethylphenyl)piperazin-1-yl]-butyl}-1,5,6,7-tetrahydroindol-4-one], for which, in series [1], the Papp A→B is 27.1 ± 1.2 ×10⁻⁶ cm/s, the Papp B→A came to 15.7 ± 1.3 ×10⁻⁶ cm/s and the efflux ratio was 0.58. In the series on Caco-2 cells, the “EFFLUX LIMITED” value is on record as “No” and the PERMEABILITY result was “High”. For the same compound, in the series on mice, the “Conditioned Avoidance Responding, effect on avoidance” value is given as “Significant reduction in avoidance” and the “Conditioned Avoidance Responding, effect on latency” value is reported as “Significant increase in latency”.
For the compound `O=C1CCCc2c1ccn2CCN1CCN(c2cccc(C(F)(F)F)c2)CC1` [NEO-359, 1-{2-[4-(3-Trifluoromethylphenyl)piperazine-1-yl]ethyl}-1,5,6,7-tetrahydroindol-4-one], in series [1], the Papp A→B was 24 ± 3.9 ×10⁻⁶ cm/s, the Papp B→A stood at 7.6 ± 0.5 ×10⁻⁶ cm/s and the efflux ratio is 0.32. Moreover, in the series on Caco-2 cells, the “EFFLUX LIMITED” value is “No” and the PERMEABILITY entry is given as “High”. In addition, the “PCP Disruption of Pre-pulse Inhibition” value in the series on male C-57 mice is reported as “No reversal”. Besides, in the series on mice, the “Conditioned Avoidance Responding, effect on latency” value was “Significant decrease in latency” and the “Conditioned Avoidance Responding, overall effect / effect on escape or avoidance” value is “No effect on escape or avoidance”.
Turning to `O=C1CCCc2c1ccn2CCN1CCN(c2cccc(Cl)c2)CC1` [NEO-376, 1-{2-[4-(3-Chloro-phenyl)-piperazin-1-yl]-ethyl}-1,5,6,7-tetrahydroindol-4-one], in series [1], the Papp A→B came to 20.4 ± 1.8 ×10⁻⁶ cm/s, the Papp B→A worked out at 9.4 ± 0.3 ×10⁻⁶ cm/s and the efflux ratio is 0.43. In the series on Caco-2 cells, the “EFFLUX LIMITED” value is on record as “No” and the PERMEABILITY result is “High”. Further, in the series on mice, the “Conditioned Avoidance Responding, effect on latency” value is reported as “significant increase in latency” and the “Conditioned Avoidance Responding, overall effect / effect on escape or avoidance” value was “No effect on escape or avoidance”.
For the compound `O=C1CCCc2c1ccn2CCCN1CCN(c2cccc(C(F)(F)F)c2)CC1` [NEO-356, 1-{3-[4-(3-Trifluoromethylphenyl)piperazin-1-yl]propyl}-1,5,6,7-tetrahydroindol-4-one], in series [1], the Papp A→B came to 21.5 ± 2.9 ×10⁻⁶ cm/s, the Papp B→A was found to be 8.8 ± 0.3 ×10⁻⁶ cm/s and the efflux ratio worked out at 0.41. Besides, in the series on Caco-2 cells, the “EFFLUX LIMITED” value was “No” and the PERMEABILITY entry is reported as “High”. Besides, the “PCP Disruption of Pre-pulse Inhibition” value with male C-57 mice is listed as “No reversal”. The “Conditioned Avoidance Responding, overall effect / effect on escape or avoidance” value in the series on mice is “No effect”.
